Earlier results as cited in paper PMC13015236 (Journal of Pharmaceutical Analysis, 2025).

How the values were obtained:
[1] = system: non-small cell lung cancer (NSCLC); conditions: NSCLC patients
[2] = patients

atezolizumab
objective response rate (ORR) [1]: 16.2%
objective response rate (ORR) [2]: 24%

tiragolumab
objective response rate (ORR) [2]: 21%
